Calls of active or inactive are those of the source.
Legend:
[1] = target: T1, Peroxisome proliferator-activated receptor gamma/Nuclear receptor coactivator 3 (Homo sapiens, UniProt P37231); type: functional
[2] = target: T2, Peroxisome proliferator-activated receptor gamma/Nuclear receptor coactivator 1 (Homo sapiens, UniProt P37231); type: functional
[3] = target: T3, Peroxisome proliferator-activated receptor gamma/Nuclear receptor coactivator 2 (Homo sapiens, UniProt P37231); type: functional
T3 sequence (P37231 whole entry): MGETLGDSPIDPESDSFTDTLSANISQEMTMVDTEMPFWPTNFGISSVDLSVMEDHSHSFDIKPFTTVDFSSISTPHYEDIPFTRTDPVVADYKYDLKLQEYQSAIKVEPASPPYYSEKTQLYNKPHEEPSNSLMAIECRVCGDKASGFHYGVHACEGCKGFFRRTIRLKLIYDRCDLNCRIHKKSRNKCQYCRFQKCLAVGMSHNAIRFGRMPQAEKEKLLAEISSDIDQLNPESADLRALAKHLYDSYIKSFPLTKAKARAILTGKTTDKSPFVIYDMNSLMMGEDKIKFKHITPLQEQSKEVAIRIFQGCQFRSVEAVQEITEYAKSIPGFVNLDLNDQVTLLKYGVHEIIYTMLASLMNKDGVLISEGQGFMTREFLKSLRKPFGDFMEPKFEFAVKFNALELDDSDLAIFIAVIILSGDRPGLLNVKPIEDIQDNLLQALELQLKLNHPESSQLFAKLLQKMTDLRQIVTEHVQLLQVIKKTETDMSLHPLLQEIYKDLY
T3 sequence (Q15596 whole entry, further chain): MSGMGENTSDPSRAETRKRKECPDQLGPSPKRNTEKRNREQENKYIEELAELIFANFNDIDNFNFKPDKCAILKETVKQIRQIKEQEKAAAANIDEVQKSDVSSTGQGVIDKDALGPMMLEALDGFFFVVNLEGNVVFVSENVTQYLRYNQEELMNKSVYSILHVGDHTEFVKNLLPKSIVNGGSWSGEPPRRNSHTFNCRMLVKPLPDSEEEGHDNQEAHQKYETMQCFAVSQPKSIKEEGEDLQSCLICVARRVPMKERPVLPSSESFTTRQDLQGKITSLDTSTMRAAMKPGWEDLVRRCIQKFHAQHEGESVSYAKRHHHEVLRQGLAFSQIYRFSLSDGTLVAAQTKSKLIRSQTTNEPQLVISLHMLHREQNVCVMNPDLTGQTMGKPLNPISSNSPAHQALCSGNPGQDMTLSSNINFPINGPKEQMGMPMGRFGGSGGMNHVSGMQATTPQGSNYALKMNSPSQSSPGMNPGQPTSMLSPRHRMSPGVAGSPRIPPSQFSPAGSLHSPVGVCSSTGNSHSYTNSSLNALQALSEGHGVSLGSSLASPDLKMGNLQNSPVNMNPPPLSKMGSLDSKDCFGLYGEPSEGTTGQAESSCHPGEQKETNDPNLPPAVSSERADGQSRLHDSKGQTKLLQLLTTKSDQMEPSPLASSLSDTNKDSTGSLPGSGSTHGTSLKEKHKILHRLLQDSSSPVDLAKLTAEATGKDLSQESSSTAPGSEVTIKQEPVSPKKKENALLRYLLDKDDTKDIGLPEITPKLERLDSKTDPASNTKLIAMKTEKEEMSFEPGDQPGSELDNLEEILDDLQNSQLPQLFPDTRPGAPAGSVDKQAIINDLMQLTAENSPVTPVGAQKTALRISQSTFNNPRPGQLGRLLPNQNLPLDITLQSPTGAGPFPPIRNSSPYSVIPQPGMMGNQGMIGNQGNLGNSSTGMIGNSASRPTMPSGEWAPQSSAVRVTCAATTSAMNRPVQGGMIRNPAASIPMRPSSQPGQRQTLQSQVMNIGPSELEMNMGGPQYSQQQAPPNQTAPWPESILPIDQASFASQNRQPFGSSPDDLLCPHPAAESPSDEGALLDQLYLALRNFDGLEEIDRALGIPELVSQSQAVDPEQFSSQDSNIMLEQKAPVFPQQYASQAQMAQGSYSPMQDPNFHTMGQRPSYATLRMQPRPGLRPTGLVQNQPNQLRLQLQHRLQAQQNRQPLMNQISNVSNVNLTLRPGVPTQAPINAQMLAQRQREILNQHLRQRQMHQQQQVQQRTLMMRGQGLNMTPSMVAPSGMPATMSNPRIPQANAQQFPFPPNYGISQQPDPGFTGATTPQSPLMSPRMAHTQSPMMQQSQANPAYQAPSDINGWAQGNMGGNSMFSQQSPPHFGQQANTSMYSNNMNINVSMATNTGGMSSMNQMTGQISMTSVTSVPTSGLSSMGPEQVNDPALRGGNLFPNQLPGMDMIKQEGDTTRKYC

[4] = target: T1, Peroxisome proliferator-activated receptor gamma/Nuclear receptor coactivator 3; experiment: (§1) TR-FRET dose response biochemical High Throughput Screening assay for agonists of the steroid receptor coactivator 3 (SRC-3) recruitment by the peroxisome proliferator-activated receptor gamma (PPAR gamma): non-selective agonists. [Related pubchem assays: 1301 (Confirmation screen.), 1048 (Primary screen.)]; type: functional
[5] = target: T2, Peroxisome proliferator-activated receptor gamma/Nuclear receptor coactivator 1; experiment: as §1, with “1 (SRC-1)” for “3 (SRC-3)”, “assays (depositor defined):AID1300, AID1808, AID504735, AID631]” for “assays: 1301 (Confirmation screen.), 1048 (Primary screen.)]”; type: protein assay
[6] = target: T3, Peroxisome proliferator-activated receptor gamma/Nuclear receptor coactivator 2; experiment: TR-FRET dose response biochemical High Throughput Screening assay for agonists of the steroid receptor coactivator 2 (SRC-2) recruitment by the peroxisome proliferator-activated receptor gamma (PPAR gamma): non-selective agonists. [Related pubchem assays: 1297, 1032 ]; type: functional
[7] = target: T4, Short transient receptor potential channel 4 (Mus musculus, UniProt Q9QUQ5); experiment: mouse TRPC4 channel inhibitors, dose response, cell-based, HEK293 TRPC4/mu-opioid, Fluo-4 calcium (AID 434942); type: functional;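 also: potency of inhibitors blocking the TRPC4 calcium response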
T4 sequence (Q9QUQ5 whole entry): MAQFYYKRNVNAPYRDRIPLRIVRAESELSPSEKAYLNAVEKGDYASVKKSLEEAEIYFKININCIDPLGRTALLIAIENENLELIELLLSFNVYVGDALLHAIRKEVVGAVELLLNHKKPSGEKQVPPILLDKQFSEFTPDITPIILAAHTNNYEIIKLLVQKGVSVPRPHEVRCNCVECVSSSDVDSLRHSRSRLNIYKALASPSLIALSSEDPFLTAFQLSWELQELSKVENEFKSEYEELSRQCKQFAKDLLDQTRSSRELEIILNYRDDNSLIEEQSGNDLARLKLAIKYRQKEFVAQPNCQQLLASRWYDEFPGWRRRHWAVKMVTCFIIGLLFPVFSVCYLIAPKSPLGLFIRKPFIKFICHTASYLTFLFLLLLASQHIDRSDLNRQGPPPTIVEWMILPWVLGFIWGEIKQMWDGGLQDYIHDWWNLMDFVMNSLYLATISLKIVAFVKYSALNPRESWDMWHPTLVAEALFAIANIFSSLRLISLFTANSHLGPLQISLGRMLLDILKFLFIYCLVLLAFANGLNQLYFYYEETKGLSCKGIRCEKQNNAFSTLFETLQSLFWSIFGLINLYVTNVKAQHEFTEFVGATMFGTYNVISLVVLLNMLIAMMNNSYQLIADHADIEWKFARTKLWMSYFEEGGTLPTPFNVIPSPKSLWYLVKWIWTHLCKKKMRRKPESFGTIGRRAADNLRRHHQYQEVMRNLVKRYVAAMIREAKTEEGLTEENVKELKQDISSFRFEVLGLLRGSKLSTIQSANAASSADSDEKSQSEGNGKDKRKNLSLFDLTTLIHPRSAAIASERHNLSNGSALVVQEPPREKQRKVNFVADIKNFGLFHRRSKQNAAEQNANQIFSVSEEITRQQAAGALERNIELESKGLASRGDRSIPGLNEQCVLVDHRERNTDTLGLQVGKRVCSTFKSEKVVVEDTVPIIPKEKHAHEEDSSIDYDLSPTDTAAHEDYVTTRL

[8] = target: T4, Short transient receptor potential channel 4; experiment: mouse TRPC4 channel activators, dose response, cell-based, HEK293 TRPC4/mu-opioid, Fluo-4 calcium (AID 434937); type: functional
[9] = target: T5, Small ubiquitin-related modifier 1 (Homo sapiens, UniProt P63165); experiment: inhibitors of SUMO1 partner interactions, dose response, biochemical, FRET (AID 624383); type: functional; details: read-out: IC50_Mean
T5 sequence (P63165 whole entry): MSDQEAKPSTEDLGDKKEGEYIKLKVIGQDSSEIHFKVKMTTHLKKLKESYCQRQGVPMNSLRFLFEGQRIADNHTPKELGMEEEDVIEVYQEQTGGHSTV

[10] = target: T5, Small ubiquitin-related modifier 1; experiment: inhibitors of SUMO1 peptide binding, dose response, biochemical, fluorescence polarization, uHTS hits (AID 624382); type: functional; details: read-out: IC50_Mean
[11] = target: T6, DNA repair and recombination protein RAD54-like (Homo sapiens, UniProt Q92698); experiment: inhibitors of human RAD54 branch migration, confirmation, biochemical, fluorescence, cherry-picked samples, dose series (AID 651657); type: functional
T6 sequence (Q92698 whole entry): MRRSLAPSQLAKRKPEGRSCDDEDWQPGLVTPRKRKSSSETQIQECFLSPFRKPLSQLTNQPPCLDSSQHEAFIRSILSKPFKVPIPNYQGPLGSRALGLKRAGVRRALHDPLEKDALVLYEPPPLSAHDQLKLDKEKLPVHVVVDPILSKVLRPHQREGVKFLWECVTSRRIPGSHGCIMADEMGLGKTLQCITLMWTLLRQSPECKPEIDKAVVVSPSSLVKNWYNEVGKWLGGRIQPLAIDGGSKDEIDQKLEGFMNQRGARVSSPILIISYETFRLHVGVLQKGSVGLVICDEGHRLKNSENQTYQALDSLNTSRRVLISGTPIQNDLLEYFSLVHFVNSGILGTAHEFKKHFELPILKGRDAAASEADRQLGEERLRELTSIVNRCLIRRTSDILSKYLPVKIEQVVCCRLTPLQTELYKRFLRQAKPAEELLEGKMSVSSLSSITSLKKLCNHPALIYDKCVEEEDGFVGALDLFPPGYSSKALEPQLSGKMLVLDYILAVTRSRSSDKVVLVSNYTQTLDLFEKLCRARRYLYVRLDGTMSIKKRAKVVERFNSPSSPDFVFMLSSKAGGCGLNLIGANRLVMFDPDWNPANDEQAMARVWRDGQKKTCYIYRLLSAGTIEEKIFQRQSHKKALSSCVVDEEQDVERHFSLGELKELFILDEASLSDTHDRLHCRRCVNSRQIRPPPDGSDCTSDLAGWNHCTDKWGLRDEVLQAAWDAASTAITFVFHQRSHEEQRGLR

HT-1080 = experiment: cytotoxicity in HT1080 fibrosarcoma cells, cell-based, fluorescence readout (AID 620); type: functional; details: Homo sapiens
[12] = target: Luciferin 4-monooxygenase (Photinus pyralis, UniProt P08659); experiment: Counter Screen for Luciferase-based Assay Positives. [Related pubchem assays: 620, 618, 411 ]
Sequence of Luciferin 4-monooxygenase (P08659 whole entry): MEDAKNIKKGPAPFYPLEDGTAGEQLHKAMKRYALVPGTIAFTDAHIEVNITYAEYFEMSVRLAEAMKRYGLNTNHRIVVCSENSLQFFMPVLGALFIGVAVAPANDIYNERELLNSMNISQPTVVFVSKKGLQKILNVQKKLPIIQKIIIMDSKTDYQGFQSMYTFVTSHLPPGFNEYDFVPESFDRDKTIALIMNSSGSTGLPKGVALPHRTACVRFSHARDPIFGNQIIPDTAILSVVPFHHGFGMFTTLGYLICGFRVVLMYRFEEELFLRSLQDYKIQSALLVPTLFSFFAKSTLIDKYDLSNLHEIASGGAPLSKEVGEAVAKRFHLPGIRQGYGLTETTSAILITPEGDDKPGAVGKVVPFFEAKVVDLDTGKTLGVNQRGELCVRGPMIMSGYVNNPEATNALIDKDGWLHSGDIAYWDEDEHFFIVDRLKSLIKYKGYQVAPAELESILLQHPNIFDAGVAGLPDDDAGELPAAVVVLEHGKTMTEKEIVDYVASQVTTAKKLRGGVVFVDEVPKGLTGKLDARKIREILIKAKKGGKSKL

[13] = target: T7, Voltage-gated N-type calcium channel alpha-1B subunit/Amyloid beta A4 precursor protein-binding family A member 1 (Homo sapiens, UniProt Q00975+Q02410); type: protein assay
[14] = target: T7, Voltage-gated N-type calcium channel alpha-1B subunit/Amyloid beta A4 precursor protein-binding family A member 1; type: protein assay; remark: listed apart in the source
Cytochrome P450 2C9 = Cytochrome P450 2C9 (Homo sapiens, UniProt P11712)
Sequence of Cytochrome P450 2C9 (P11712 whole entry): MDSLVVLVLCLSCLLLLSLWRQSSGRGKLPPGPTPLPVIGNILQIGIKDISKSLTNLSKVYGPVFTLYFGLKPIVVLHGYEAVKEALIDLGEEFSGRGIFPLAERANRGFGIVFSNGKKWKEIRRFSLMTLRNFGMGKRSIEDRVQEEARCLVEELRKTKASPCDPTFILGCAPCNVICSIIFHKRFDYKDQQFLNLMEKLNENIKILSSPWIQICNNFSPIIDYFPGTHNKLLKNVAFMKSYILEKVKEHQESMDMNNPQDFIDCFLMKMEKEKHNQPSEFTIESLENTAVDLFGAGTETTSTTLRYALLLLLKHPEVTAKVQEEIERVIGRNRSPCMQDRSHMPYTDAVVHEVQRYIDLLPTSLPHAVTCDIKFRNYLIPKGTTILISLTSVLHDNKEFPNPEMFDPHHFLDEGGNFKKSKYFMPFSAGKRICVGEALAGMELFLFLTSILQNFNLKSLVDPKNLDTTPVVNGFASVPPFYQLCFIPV

Cytochrome P450 1A2 = target: T8, Cytochrome P450 1A2 (Homo sapiens, UniProt P05177);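 also: PubChem cytochrome P450 panel assay, CYP1A2 panel member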
T8 sequence (P05177 whole entry): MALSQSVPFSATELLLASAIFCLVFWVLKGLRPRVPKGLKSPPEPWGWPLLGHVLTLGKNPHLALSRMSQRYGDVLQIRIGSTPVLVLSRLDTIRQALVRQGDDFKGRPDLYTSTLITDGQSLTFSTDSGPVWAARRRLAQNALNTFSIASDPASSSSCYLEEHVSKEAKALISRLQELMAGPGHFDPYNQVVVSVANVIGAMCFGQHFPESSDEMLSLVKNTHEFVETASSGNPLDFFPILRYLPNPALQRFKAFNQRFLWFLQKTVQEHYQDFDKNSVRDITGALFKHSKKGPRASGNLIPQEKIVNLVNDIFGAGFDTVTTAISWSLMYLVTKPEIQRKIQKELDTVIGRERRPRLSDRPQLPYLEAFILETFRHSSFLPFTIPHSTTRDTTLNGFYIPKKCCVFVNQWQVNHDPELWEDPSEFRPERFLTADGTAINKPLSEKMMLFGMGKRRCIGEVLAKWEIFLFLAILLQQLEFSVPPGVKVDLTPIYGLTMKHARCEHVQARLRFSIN

[15] = inhibitors of intracellular T. cruzi replication, confirmation, NIH3T3 host cells, beta-gal luminescence (AID 2044); type: functional, cell-based;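 also: intracellular parasites grown in NIH/3T3 mouse fibroblasts as host cells; luminescent beta-galactosidase reporter signal from transgenic T. cruzi replicating inside host cells; inhibitors lower the luminescence signal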
[16] = cytotoxicity toward NIH3T3 fibroblasts, dose response, counter-screen, cell-based, ATP luminescence, mouse fibroblasts (AID 2010); type: functional;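 also: cells exposed to compound for about 90 hours before reading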
[17] = target: T9, DNA repair protein RAD52 homolog (Homo sapiens, UniProt P43351); type: functional, biochemical
T9 sequence (P43351 whole entry): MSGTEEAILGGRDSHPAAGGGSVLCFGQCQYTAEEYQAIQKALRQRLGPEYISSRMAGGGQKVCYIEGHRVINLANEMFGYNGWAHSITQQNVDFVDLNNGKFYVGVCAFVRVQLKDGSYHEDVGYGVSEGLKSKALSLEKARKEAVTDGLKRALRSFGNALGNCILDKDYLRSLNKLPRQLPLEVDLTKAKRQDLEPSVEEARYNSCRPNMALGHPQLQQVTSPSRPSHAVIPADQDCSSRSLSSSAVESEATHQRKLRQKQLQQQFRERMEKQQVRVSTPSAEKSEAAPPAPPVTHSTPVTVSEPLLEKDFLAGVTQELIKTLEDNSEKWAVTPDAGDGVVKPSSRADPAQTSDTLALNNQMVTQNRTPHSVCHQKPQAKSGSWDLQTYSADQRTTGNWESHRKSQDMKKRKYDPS

[18] = inhibitors of HIV Env-driven cell fusion, dose response, cherry-pick (AID 652057); type: functional, cell-based
[19] = inhibitors of clade B AD8 Env fusion, dose response, cell-based, cherry-pick (AID 652062); type: functional;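 also: luciferase signal from cell-cell fusion driven by HIV-1 clade B AD8 Env; potency is for inhibitors of fusion seen as a drop in luminescence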

T2 sequence (P37231 whole entry): as the sequence (P37231 whole entry) above
T2 sequence (Q15788 whole entry, further chain): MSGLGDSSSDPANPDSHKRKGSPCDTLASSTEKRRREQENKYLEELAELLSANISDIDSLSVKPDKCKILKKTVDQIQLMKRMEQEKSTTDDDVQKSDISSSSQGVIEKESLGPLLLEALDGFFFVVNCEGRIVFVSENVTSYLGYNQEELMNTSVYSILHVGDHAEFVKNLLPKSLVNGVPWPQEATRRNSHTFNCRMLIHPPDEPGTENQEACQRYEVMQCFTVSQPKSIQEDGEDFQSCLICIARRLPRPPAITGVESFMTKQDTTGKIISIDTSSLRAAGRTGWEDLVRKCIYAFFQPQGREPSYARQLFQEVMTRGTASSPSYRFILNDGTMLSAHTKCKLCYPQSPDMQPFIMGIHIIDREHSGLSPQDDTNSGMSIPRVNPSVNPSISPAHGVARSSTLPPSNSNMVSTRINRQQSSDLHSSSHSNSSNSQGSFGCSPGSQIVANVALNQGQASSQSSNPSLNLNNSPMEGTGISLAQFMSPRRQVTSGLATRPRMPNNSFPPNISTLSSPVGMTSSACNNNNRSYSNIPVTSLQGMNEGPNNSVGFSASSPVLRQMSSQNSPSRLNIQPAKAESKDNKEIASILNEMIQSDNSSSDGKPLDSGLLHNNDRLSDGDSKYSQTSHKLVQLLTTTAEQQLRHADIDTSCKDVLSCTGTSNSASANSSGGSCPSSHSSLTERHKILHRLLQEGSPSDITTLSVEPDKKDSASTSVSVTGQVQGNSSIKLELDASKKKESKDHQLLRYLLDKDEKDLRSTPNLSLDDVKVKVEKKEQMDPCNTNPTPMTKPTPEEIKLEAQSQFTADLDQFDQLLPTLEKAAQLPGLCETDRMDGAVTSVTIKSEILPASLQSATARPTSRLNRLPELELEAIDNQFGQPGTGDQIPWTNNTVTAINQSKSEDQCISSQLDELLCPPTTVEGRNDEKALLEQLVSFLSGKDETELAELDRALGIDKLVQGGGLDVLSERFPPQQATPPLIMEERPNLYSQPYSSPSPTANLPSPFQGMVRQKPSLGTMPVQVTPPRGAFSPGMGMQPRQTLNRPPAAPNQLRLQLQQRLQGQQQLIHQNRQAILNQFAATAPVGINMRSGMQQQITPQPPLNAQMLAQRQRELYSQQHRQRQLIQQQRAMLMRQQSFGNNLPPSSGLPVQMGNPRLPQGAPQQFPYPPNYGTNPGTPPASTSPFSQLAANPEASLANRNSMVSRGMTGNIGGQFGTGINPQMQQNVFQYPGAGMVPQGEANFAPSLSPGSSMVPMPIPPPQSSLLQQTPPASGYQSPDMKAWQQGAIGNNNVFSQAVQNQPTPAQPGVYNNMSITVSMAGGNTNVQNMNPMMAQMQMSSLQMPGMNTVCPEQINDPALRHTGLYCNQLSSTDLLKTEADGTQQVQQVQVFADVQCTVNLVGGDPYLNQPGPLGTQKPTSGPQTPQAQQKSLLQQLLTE

## COc1ccc(Nc2nc(S(=O)(=O)c3ccc(C)cc3)c(Cl)s2)cc1
[1]
  EC50: > 79.4 µM (not active)
[2]
  EC50: > 79.4 µM (not active)
[3]
  EC50: > 79.4 µM (not active)

## COc1ccc2sc3c(O)nc4ccccc4c3c2c1
[1]
  EC50: 11.2 µM (not active)
[2]
  EC50: 11 µM (not active)
[3]
  EC50: 12.1 µM (not active)

## Cc1ccc(C(=O)C2=C(O)C(=O)N(c3ncccn3)C2c2ccc(Cl)cc2)o1 (stereo not drawn)
[4]
  EC50: > 79.4 µM (not active)
[5]
  EC50: > 79.4 µM (inactive)
[6]
  EC50: 35.8 µM (not active)

## O=[N+]([O-])c1cc2c(cc1CNCCc1ccc3c(c1)OCO3)OCO2
[7]
  EC50: 1.06 µM (active)
[8]
  EC50: 3.35 µM (active)

## CN(C(=O)COC(=O)c1ccc(-c2ccc(O)cc2)cc1)C1CCS(=O)(=O)C1 (stereo not drawn)
[9]
  IC50: 16.1 µM (active)
[10]
  IC50: > 66.6 µM (inactive)

## CCN1CCN(CCCNC(=O)c2cc3c(=O)oc4ccc(C)cc4c3s2)CC1
[11]
  AC50: 36.3 µM (active)

## c1ccc(-n2ncc3c2ncn2nc(-c4ccco4)nc32)cc1
[1]
  EC50: > 79.4 µM (not active)
[2]
  EC50: > 79.4 µM (not active)
[3]
  EC50: 16.2 µM (not active)

## COc1cccc(CNC(=O)CSc2cc(=O)n(C)c3ccccc23)c1
[4]
  EC50: > 79.4 µM (not active)
[5]
  EC50: > 79.4 µM (inactive)
[6]
  EC50: > 79.4 µM (not active)

## CC1CCc2nc(NC(=O)CN3CCN(Cc4ccc5c(c4)OCO5)CC3)sc2C1 (stereo not drawn)
[7]
  EC50: 0.299 µM (active)

## Cc1ccccc1Cn1nnc(-c2cccc(C(=O)O)c2)n1
HT-1080
  EC50: > 50 µM (not active)
[12]
  EC50: > 100 µM (not active)

## O=C(Nc1ccc(N2CCCCC2)cc1)c1ccccc1
[1]
  EC50: > 79.4 µM (not active)
HT-1080
  EC50: > 50 µM (not active)
[2]
  EC50: > 79.4 µM (not active)
[3]
  EC50: > 79.4 µM (not active)
[12]
  EC50: 1.28 µM (active)

## N#Cc1c(Cl)nc(SCc2ccccc2)nc1-c1ccccc1
[4]
  EC50: > 79.4 µM (not active)
[5]
  EC50: 4.02 µM (active)
[6]
  EC50: 5.16 µM (active)

## Cc1cc(Cl)c2oc(C(=O)N(C)Cc3nccn3C)c(C)c2c1
[7]
  EC50: 0.531 µM (active)

## O=C(NCc1ccc2c(c1)OCO2)Nc1ccc2nsnc2c1
[1]
  EC50: 29.8 µM (not active)
[2]
  EC50: 20.4 µM (not active)
[3]
  EC50: 17.8 µM (not active)

## C=CCOc1ccc(/C=C2\SC(=S)N(N3CCOCC3)C2=O)cc1
[13]
  IC50: 4.43 µM (active)
[14]
  IC50: > 50 µM (inactive)

## CCn1c(N2CCN(C(=O)Nc3ccc(F)cc3)CC2)nc2ccccc21
[8]
  EC50: 0.944 µM (active)
Cytochrome P450 2C9
  AC50: inconclusive
Cytochrome P450 1A2
  AC50: 20 µM (inconclusive)

## COc1cc(CNCCCN2CCOCC2)cc(Br)c1OCc1ccc(Cl)cc1
[7]
  EC50: 5.96 µM (active)
[15]
  EC50: 0.531 µM (active)
[16]
  EC50: 24 µM (active)

## CC1CC(C)CN(CCCNC(=O)Cn2cccc2C(=O)c2ccccc2)C1 (stereo not drawn)
[8]
  EC50: 1.19 µM (active)

## NCCCC[C@H]1CN=C(S)N1CCc1cc(C(F)(F)F)cc(C(F)(F)F)c1
[17]
  AC50: 17.4 µM (active)

## CCN1CCN(Cc2ccc(NC(=O)c3cc(NC(=O)c4cnnc5ccccc45)cc(OC)c3)cc2C(F)(F)F)CC1
[17]
  AC50: 24.3 µM (active)

## COc1ccc(-c2cc(NC=O)c3ncc(-c4cccc(C(=O)NCCN(C)C)c4)n3c2)cn1
[17]
  AC50: 5.69 µM (active)
[11]
  AC50: 16.6 µM (active)

## COc1ccc(S(=O)(=O)N(C)C[C@@H]2Oc3ccc(NC(=O)C4CCCCC4)cc3CC(=O)N([C@@H](C)CO)C[C@@H]2C)cc1
[18]
  AC50: 27.6 µM (active)

## COCC(=O)N1C[C@@H](C)[C@H](OC)CN(C)C(=O)c2ccc(NC(=O)c3ccc(OC)cc3)cc2OC[C@@H]1C
[19]
  AC50: 5.52 µM (active)

## O=c1c2cn[nH]c2[nH]c(=S)n1-c1cccc2ccccc12
[4]
  EC50: > 79.4 µM (not active)
[5]
  EC50: > 79.4 µM (inactive)
[6]
  EC50: > 79.4 µM (not active)

Reference: ChEMBL document CHEMBL1201862, “PubChem BioAssay data set” (2004)
